Read-outs that look alike come from different tables or passages of the source.
Columns and labels:
[1] = test system: Daoy; experiment: MTT cytotoxicity assay, Daoy; assay type: cell-based, human; details: 72 h; for IC50: 0.05–50 µM; for cytotoxicity at 50 µM: read-out: % Cytotoxicity (50 µM) DAOY;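 for all read-outs here: viability read as formazan absorbance at 570 nm after MTT reduction, three independent biological replicates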
[2] = test system: HEK293; experiment: MTT cytotoxicity assay, HEK293 control cells; assay type: cell-based, human; details: MTT, 72 h, non-cancer cell line;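 note: Read-out is formazan absorbance at 570 nm from MTT reduction in 96-well plates, with three independent biological replicates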
[3] = test system: H1975; experiment: MTT cytotoxicity assay, H1975; assay type: cell-based; details: Homo sapiens; for cytotoxicity at 50 µM: read-out: % Cytotoxicity (50 µM) H1975; for IC50: 0.05–50 µM
Experimental: (§1) Cytotoxicity assays were performed by using the MTT reduction method as described previously. Briefly, cancer cell lines were plated in flat-bottom 96-well plates at a cell concentration of 5 × 10^3 cells/well for the fastest growing lines, such as HEK293 and HT29 cells and 1 × 10^4 cells/well for more slowly growing lines, such as HCT116, H1975, BxPC-3, AsPC-1, B16-F10 and DAOY. Then, cells were incubated with the synthesised compounds at different concentrations (from 0.05 to 50 µM) in 200 µL with 10% FBS in RPMI 1640 or DMEM F12 culture medium at 37 °C for 72 h. Later, 10 µL of MTT were added at a final concentration of 0.5 mg/mL, incubated at 37 °C for 4 h, and then solubilised with 10% sodium dodecyl sulphate (SDS) in 0.1 mM HCl and incubated overnight at 37 °C. Formazan formation was measured at 570 nm in a multiwell plate reader (Cytation 5, Biotek Instruments, Winooski, VT, USA). Three independent biological replicates were performed.

[4] = test system: AsPC-1; experiment: MTT cytotoxicity assay, AsPC-1; assay type: cell-based; details: Homo sapiens, ASPC1, 72 h, 0.05–50 µM
Experimental: as §1

[5] = MTT cytotoxicity assay, HEK293 control cells; assay type: cell-based, human; details: human, HEK293 cells; 50 µM, 72 h, MTT;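 note: Read-out is formazan absorbance at 570 nm from MTT reduction in 96-well plates, with three independent biological replicates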
[6] = test system: HCT116; experiment: MTT cytotoxicity assay, HCT116; assay type: cell-based; details: Homo sapiens; for cytotoxicity at 50 µM: read-out: % Cytotoxicity (50 µM) HCT116; for IC50: 0.05–50 µM
Experimental: as §1

[7] = test system: BxPC-3; experiment: MTT cytotoxicity assay, BxPC-3; assay type: cell-based; details: Homo sapiens, 72 h, 0.05–50 µM
Experimental: as §1

[8] = test system: HT29; experiment: MTT cytotoxicity assay, HT29; assay type: cell-based; details: Homo sapiens; for cytotoxicity at 50 µM: read-out: % Cytotoxicity (50 µM) HT29; for IC50: 0.05–50 µM
Experimental: as §1

Structure (SMILES)	cytotoxicity at 50 µM ([1]; Homo sapiens, Daoy, 50 µM, MTT)	cytotoxicity at 50 µM ([3]; NCI-H1975, 50 µM, 72 h, MTT)	melting point	IC50 ([2]; Homo sapiens, HEK293)	cytotoxicity at 72 h, 50 µM [5]	cytotoxicity at 50 µM ([6]; HCT-116, 50 µM, 72 h, MTT)	cytotoxicity at 50 µM ([8]; HT-29, 50 µM, 72 h, MTT)	other results
N.N.[Cl][Pt][Cl] [Cisplatin, reference compound]	–	–	–	–	–	–	–	IC50 ([1]; MTT): 12 ± 0.7 µM; IC50 [2]: 12 ± 1.4 µM
CCCCn1cnc2c(-c3ccc(OC(F)(F)F)cc3)nc(NC3CCCC3)nc21 [Compound 4a, 9-Butyl-N-cyclopentyl-6-(4-(trifluoromethoxy)phenyl)-9H-purin-2-amine]	82 ± 6.2%	66 ± 0.9%	93 to 95 °C	> 50 µM	< 50%	68 ± 0.3%	< 50%	IC50 ([1]; Homo sapiens, Daoy, MTT): 18 ± 0.2 µM; IC50 ([3]; NCI-H1975, MTT, 72 h): 34 ± 0.9 µM; IC50 [4]: 20.1 ± 0.3 µM; IC50 ([6]; HCT-116, MTT, 72 h): 32 ± 0.3 µM; IC50 [7]: > 50 µM; IC50 ([8]; HT-29, MTT, 72 h): > 50 µM
CCCCCn1cnc2c(-c3ccc(OC(F)(F)F)cc3)nc(NC3CCCC3)nc21 [Compound 4b, N-cyclopentyl-9-pentyl-6-(4-(trifluoromethoxy)phenyl)-9H-purin-2-amine]	–	–	–	> 50 µM	< 50%	–	–	IC50 ([1]; Homo sapiens, Daoy, MTT): > 50 µM; cytotoxicity at 50 µM ([1]; Homo sapiens, Daoy): 94 ± 0.4%; cytotoxicity at 50 µM ([3]; NCI-H1975, 72 h): 30 ± 1%; IC50 ([3]; NCI-H1975, MTT, 72 h): 30 ± 1 µM; IC50 [4]: 23.2 ± 0.2 µM; cytotoxicity at 50 µM ([6]; HCT-116, 72 h): 53 ± 0.9%; IC50 ([6]; HCT-116, MTT, 72 h): 47 ± 0.9 µM; IC50 [7]: > 50 µM; cytotoxicity at 50 µM ([8]; HT-29, 72 h): < 50%; IC50 ([8]; HT-29, MTT, 72 h): > 50 µM
CCCCCCn1cnc2c(-c3ccc(OC(F)(F)F)cc3)nc(NC3CCCC3)nc21 [Compound 4c, N-cyclopentyl-9-hexyl-6-(4-(trifluoromethoxy)phenyl)-9H-purin-2-amine]	–	–	58 to 60 °C	> 50 µM	< 50%	–	–	IC50 ([1]; Homo sapiens, Daoy, MTT): 31 ± 0.9 µM; cytotoxicity at 50 µM ([1]; Homo sapiens, Daoy): 69 ± 0.9%; cytotoxicity at 50 µM ([3]; NCI-H1975, 72 h): 19 ± 0.8%; IC50 ([3]; NCI-H1975, MTT, 72 h): 19 ± 0.8 µM; IC50 [4]: > 50 µM; cytotoxicity at 50 µM ([6]; HCT-116, 72 h): < 50%; IC50 ([6]; HCT-116, MTT, 72 h): > 50 µM; IC50 [7]: > 50 µM; cytotoxicity at 50 µM ([8]; HT-29, 72 h): < 50%; IC50 ([8]; HT-29, MTT, 72 h): > 50 µM
CCCCn1cnc2c(-c3ccc(OC(F)(F)F)cc3)nc(NC3CCCCC3)nc21 [Compound 4d, 9-Butyl-N-cyclohexyl-6-(4-(trifluoromethoxy)phenyl)-9H-purin-2-amine]	< 50%	< 50%	–	–	< 50%	< 50%	< 50%	–
CCCCCCn1cnc2c(-c3ccc(OC(F)(F)F)cc3)nc(NC3CCCCC3)nc21 [Compound 4f, N-cyclohexyl-9-hexyl-6-(4-(trifluoromethoxy)phenyl)-9H-purin-2-amine]	< 50%	< 50%	84 to 86 °C	–	< 50%	< 50%	< 50%	–
CCCCn1cnc2c(-c3ccc(OC(F)(F)F)cc3)nc(NCC3CCCCC3)nc21 [Compound 4g, 9-Butyl-N-(cyclohexylmethyl)-6-(4-(trifluoromethoxy)phenyl)-9H-purin-2-amine]	< 50%	< 50%	88 to 89 °C	–	< 50%	< 50%	< 50%	–
CCCCCCn1cnc2c(-c3ccc(OC(F)(F)F)cc3)nc(NCC3CCCCC3)nc21 [Compound 4i, N-(cyclohexylmethyl)-9-hexyl-6-(4-(trifluoromethoxy)phenyl)-9H-purin-2-amine]	< 50%	< 50%	–	–	< 50%	< 50%	< 50%	–
CCCCCn1cnc2c(-c3ccc(OC(F)(F)F)cc3)nc(N3CCN(c4ccccc4)CC3)nc21 [Compound 4j, 9-Pentyl-2-(4-phenylpiperazin-1-yl)-6-(4-(trifluoromethoxy)phenyl)-9H-purine]	< 50%	< 50%	–	–	< 50%	< 50%	< 50%	–
CCCCCCn1cnc2c(-c3ccc(OC(F)(F)F)cc3)nc(N3CCN(c4ccccc4)CC3)nc21 [Compound 4k, 9-Hexyl-2-(4-phenylpiperazin-1-yl)-6-(4-(trifluoromethoxy)phenyl)-9H-purine]	< 50%	< 50%	99 to 101 °C	–	< 50%	< 50%	< 50%	–
CCCCCn1cnc2c(-c3ccc(OC(F)(F)F)cc3)nc(N3CCN(c4ccc(Cl)cc4)CC3)nc21 [Compound 4l, 9-Pentyl-2-(4-(4-clorophenyl)piperazin-1-yl)-6-(4-(trifluoromethoxy)phenyl)-9H-purine]	< 50%	< 50%	147 to 149 °C	–	< 50%	< 50%	< 50%	–
CCCCCCn1cnc2c(-c3ccc(OC(F)(F)F)cc3)nc(N3CCN(c4ccc(Cl)cc4)CC3)nc21 [Compound 4m, 2-(4-(4-Chlorophenyl)piperazin-1-yl)-9-hexyl-6-(4-(trifluoromethoxy)phenyl)-9H-purine]	< 50%	< 50%	126 to 128 °C	–	< 50%	< 50%	< 50%	–
CCCCCn1cnc2c(-c3ccc(OC(F)(F)F)cc3)nc(N3CCN(c4ccc([N+](=O)[O-])cc4)CC3)nc21 [Compound 4n, 9-Pentyl-2-(4-(4-nitrophenyl)piperazin-1-yl)-6-(4-(trifluoromethoxy)phenyl)-9H-purine]	< 50%	< 50%	180 to 181 °C	–	< 50%	< 50%	< 50%	–
CCCCCCn1cnc2c(-c3ccc(OC(F)(F)F)cc3)nc(N3CCN(c4ccc([N+](=O)[O-])cc4)CC3)nc21 [Compound 4o, 9-Hexyl-2-(4-(4-nitrophenyl)piperazin-1-yl)-6-(4-(trifluoromethoxy)phenyl)-9H-purine]	< 50%	< 50%	142 to 144 °C	–	< 50%	< 50%	< 50%	–
CCCCCn1cnc2c(-c3ccc(OC(F)(F)F)cc3)nc(N3CCN(c4ccc(OC)cc4)CC3)nc21 [Compound 4p, 9-Pentyl-2-(4-(4-methoxyphenyl)piperazin-1-yl)-6-(4-(trifluoromethoxy)phenyl)-9H-purine]	< 50%	< 50%	118 to 120 °C	–	< 50%	< 50%	< 50%	–
CCCCCCn1cnc2c(-c3ccc(OC(F)(F)F)cc3)nc(N3CCN(c4ccc(OC)cc4)CC3)nc21 [Compound 4q, 9-Hexyl-2-(4-(4-methoxyphenyl)piperazin-1-yl)-6-(4-(trifluoromethoxy)phenyl)-9H-purine]	< 50%	< 50%	144 to 145 °C	–	< 50%	< 50%	< 50%	–
O=c1[nH]cc(F)c(=O)[nH]1 [Compound 5-FU, 5-fluorouracil, reference compound]	–	–	–	0.83 ± 0.07 µM	< 50%	62 ± 1.3%	66 ± 4.9%	IC50 ([6]; HCT-116, MTT, 72 h): 31 ± 0.3 µM; IC50 ([8]; HT-29, MTT, 72 h): 0.51 ± 0.06 µM
COc1cc([C@@H]2c3cc4c(cc3[C@@H](O[C@@H]3O[C@@H]5CO[C@@H](C)O[C@H]5[C@H](O)[C@H]3O)[C@H]3COC(=O)[C@H]23)OCO4)cc(OC)c1O [Etoposide, reference compound]	–	60 ± 1.1%	–	8.4 ± 0.7 µM	65 ± 0.7%	90 ± 0.5%	–	IC50 ([3]; NCI-H1975, MTT, 72 h): 40 ± 0.2 µM; IC50 ([6]; HCT-116, MTT, 72 h): 9.8 ± 0.5 µM
Nc1ccn([C@@H]2O[C@H](CO)[C@@H](O)C2(F)F)c(=O)n1 [Gemcitabine, reference compound]	–	–	–	7.5 ± 0.6 µM	–	–	–	IC50 [4]: 0.3 ± 0.09 µM; IC50 [7]: 0.2 ± 0.07 µM

Source: publication PMC8395040 (International Journal of Molecular Sciences, 2021)
